{
  "source": "patent US8263574B2",
  "about": "“Topical formulations for the treatment of depression with S adenosyl methionine” (priority 2004, dated 2012)",
  "key": {"[1]": {"test_system": "Major Depression", "assay": "Child case studies: oral SAM-e in Major Depression (Children's Depression Inventory, clinical report)", "format": "in vivo, human", "description": "Two girls were brought in for a consult by a pediatrician and their spouse, a nutritionist. Both parents had studied SAM-e, and preferred “a trial” before traditional anti-depressants.\nCase 1. A child (34 kg.) developed increased irritability, boredom, eccentric crying, withdrawal, decreased appetite, middle insomnia, new school performance problems and sadness. They began to discuss death themes and became preoccupied with heaven, despite no new exposures to these topics. They met DSM-IV TR criteria for Major Depression, had no significant stressors in their life, and on the Children's Depression Inventory (CDI) scored a 34.\nThey were placed on a 200 mg SAM-e enteric-coated tablet each morning, before eating for a week. Subsequently, the dose was raised to 400 mg. […] Improvement began after 4 days on 400 mg. At three weeks, it was increased to 600 mg a day, with rapid and complete resolution of their depressive symptoms in 2 days. […] Their CDI fell to a 4. They have been on this dose for over 6 months.\nCase 2. child one (24 kg.) developed new problems with crying, sadness, decreased play, and an inability to be consoled. They made new negative identity comments, i.e., “I'm no good Mommy.” The child was well liked by adults and peers, but felt “no one liked them,” They also began saying they “hated school” even though they were in the top ⅓rd of their class. Their symptoms began 4-5 months after their sibling's MD began. They met DSM-IV TR criteria for Major Depression and on the Children's Depression Inventory scored 29.\nTheir CDI decreased to 6 and 7. After 3 months, they were “a little sad like before” per their parent, and was increased to 200 mg each am and afternoon with a CDI of 6. They have remained on this dose for over 6 months.\nCase 3. A person (86 kg.), unrelated to the girls described above, was diagnosed with Major Depression and Oppositional Defiant Disorder based on DSM-IV TR criteria from a clinical interview with parents and patient. They refused diagnostic scales. Their parents reported a 1½ year history of irritability, boredom, reactivity, decreased interest in all activities but computer games, sadness, excess sleep, fatigue, hopelessness, and trouble concentrating. […] Extensive laboratory testing and family doctor physical exam were negative.\nTheir mood and function improved to their baseline over 1-2 weeks according to parents, teacher and psychiatrist. Yet they had residual oppositionality. After 2-3 months the youth stopped their SAM-e due to “being sick of all the pills.” They had been taking […] tablets daily. They relapsed over the course of 3 weeks to “½” […] initial baseline depression per patient and parents. Again, they refused quantitative depression scales. Behaviorally, they stopped returning calls, became bored again, and had decreased homework performance with no identifiable new stressors. Restoring the SAM-e to three 400 mg tablets—800 mg per am and 400 after school—restored them to baseline in 5-8 days from parent report confirmed with diagnostic interview. They have remained on this dosing for approximately 22 weeks."}, "[2]": {"test_system": "patients with Major Depression", "settings": "cited from earlier work"}, "[3]": {"test_system": "major depressive disorder", "settings": "cited from earlier work"}, "[4]": {"settings": "infusions of 800 mg, placebo-controlled crossover; cited from earlier work"}, "[5]": {"test_system": "depressive symptoms", "settings": "195 patients, 400 mg intramuscular for 15 days; cited from earlier work"}},
  "note": "Several values for one entry are separate records, joined by “and”; a condition that tells them apart may be missing. Equal values may be shown once. Read-outs that look alike come from different tables or passages of the source.",
  "data": [
    {"compound": "C[S+](CC[C@H](N)C(=O)O)C[C@H]1O[C@@H](n2cnc3c(N)ncnc32)[C@H](O)[C@@H]1O", "note": "(some centres unmarked) [SAM-e, S-adenosyl methionine]", "values": [
      {"measurement": "response over 3 weeks", "setting": "[1]; Case 1, oral 400 mg", "value": "modest improvement"},
      {"measurement": "time until improvement began", "setting": "[1]; Case 1, oral 400 mg", "value": 4, "unit": "days"},
      {"measurement": "side effects", "setting": "[1]; Case 1, oral 600 mg a day", "value": "no signs of mania, anxiety, insomnia, diarrhea, abdominal pain or nausea"},
      {"measurement": "time to complete resolution of depressive symptoms", "setting": "[1]; Case 1, oral 600 mg a day", "value": 2, "unit": "days"},
      {"measurement": "Children's Depression Inventory (CDI) on treatment", "setting": "[1]; Case 1, oral 600 mg a day, CDI before treatment 34", "value": 4},
      {"measurement": "time to signs of improvement", "setting": "[1]; Case 2 (person one), oral 200 mg", "value": 2, "unit": "days"},
      {"measurement": "side effects", "setting": "[1]; Case 2, oral 200 mg", "value": "no side effects"},
      {"measurement": "time until at baseline", "setting": "[1]; Case 2, oral 200 mg", "value": 11, "unit": "days"},
      {"measurement": "Children's Depression Inventory (CDI) on treatment", "setting": "[1]; Case 2, oral 200 mg each am and afternoon, after 3 months", "value": 6},
      {"measurement": "Children's Depression Inventory (CDI) on treatment", "setting": "[1]; Case 2, oral 200 mg, CDI before treatment 29", "value": "6 and 7"},
      {"measurement": "time until restored to baseline after restart", "setting": "[1]; Case 3, oral 800 mg per am and 400 after school", "value": "5 to 8", "unit": "days"},
      {"measurement": "side effects after dose reduction", "setting": "[1]; Case 3, oral 1400 mg", "value": "loss of both side effects"},
      {"measurement": "time until mood and function improved to baseline", "setting": "[1]; Case 3, oral 1400 mg", "value": "1-2 weeks"},
      {"measurement": "side effects", "setting": "[1]; Case 3, oral 1800 mg", "value": "slight tremor and slight anxiety"},
      {"measurement": "time course of relapse after stopping SAM-e", "setting": "[1]; Case 3, relapse to \"½\" initial baseline depression", "value": 3, "unit": "weeks"},
      {"measurement": "self-reported effect on depression", "setting": "[1]; both parents of Cases 1 and 2, 1200-1400 mg per day", "value": "full remission of their depression"},
      {"measurement": "efficacy compared with imipramine", "setting": "[2]; SAM-e intramuscular 400 mg/d vs. oral IMI 150 mg/d, 4 weeks", "value": "did not differ significantly on any efficacy measure"},
      {"measurement": "tolerability compared with imipramine", "setting": "[2]; both studies", "value": "better tolerated than IMI"},
      {"measurement": "efficacy compared with imipramine", "setting": "[2]; intramuscular (400 mg) and oral SAM-e (1600 mg, 6 weeks) in adults", "value": "comparable to 150 mg of imipramine (IMI)"},
      {"measurement": "efficacy in major depressive disorder", "setting": "[3]; 13 trials vs placebo, 19 trials vs tricyclic antidepressants, more than 1,400 patients", "value": "effective"},
      {"measurement": "efficacy in major depression versus placebo and tricyclics", "setting": "[3]; intravenous and intramuscular preparations, 14 double-blind European studies", "value": "more effective than placebo and comparable to imipramine, amitriptyline and clomipramine"},
      {"measurement": "EEG / ERP antidepressant effects", "setting": "[4]", "value": "effects greater than placebo"},
      {"measurement": "effect on depressive symptoms", "setting": "[5]", "value": "remission on both day 7 and 15"}
    ]}
  ]
}
